Measurements published in patent publication US20260144799A1, “COMPOSITION COMPRISING A FIRST RAS INHIBITOR, SECOND RAS INHIBITOR AND A SHP2 INHIBITOR FOR USE IN THE TREATMENT OF CANCER” (Revolution Medicines, Inc., priority 2022, published 2026).

How the values were obtained:
[1] = system: eLL2 KRAS^WT/G12C NRAS^−/− A2 tumors; test: Tumor immune profile by flow cytometry in response to therapy; format: in vivo, murine; conditions: 4 days of treatment, tumors collected 24 hours post last dose, 3 animals/group
Experimental: Methods: The tumor immune profile of the murine syngeneic eLL2 KRAS^WT/G12C NRAS^−/− A2 tumors (3 animals/group) was evaluated in response to therapy by flow cytometry. The mono- and combination therapies were administered for 4 days at the concentrations described in FIG. 1 A-C. 24 hours post last dose the tumors were collected, tumor tissue was minced, processed with the Dri Tumor & Tissue Dissociation Reagent from BD Biosciences, and homogenized with the gentleMACS™ Dissociator. The cell suspension was incubated at 4° C. for 30 minutes with Mouse BD Fc Block (Clone 2.4G2 from BD Pharmingen), 10 minutes with Blue Dead Cell Stain Kit (from Invitrogen) and 30 min in cell staining buffer. […]

[2] = system: eLL2 KRAS^WT/G12C NRAS^−/− A2 model; test: Tumor cell growth in vivo, murine syngeneic eLL2 KRAS^WT/G12C NRAS^−/− A2 model; parameters: species or system C57BL/6J mice; conditions: on treatment; RMC-4550 30 mg/kg po qd
Experimental: Methods: Effects of Compound A and combination therapy with Compound B and/or RMC-4550 (a SHP2 inhibitor) on tumor cell growth in vivo were evaluated in the murine syngeneic eLL2 KRAS^WT/G12C NRAS^−/− A2 model using female C57BL/6J mice (6-8 weeks old). Mice were implanted with tumor cells (3×10^6 cells/mouse) in DMEM medium without supplements subcutaneously in the upper right flank. Once tumors reached an average size of ˜130 mm^3, mice were randomized to treatment groups to start the administration of test articles or vehicle. Compound A was administered by oral gavage once daily (po qd) at 200 mg/kg, compound B was administered by oral gavage once daily (po qd) at 25 mg/kg and RMC-4550 was administered by oral gavage once daily (po qd) at 30 mg/kg. In the dual combinations the compounds were administered at the same dose as the monotherapies qd. In the triple combination Compound A was dosed at 200 mg/kg po qd, Compound B was dosed at 50 mg/kg po q2d and RMC-4550 was dosed at 20 mg/kg po qd. The administration of Compound A, Compound B and RMC-4550 was ceased after 60 days of treatment in the monotherapy and combination groups. Body weight and tumor volume (using calipers) was measured twice weekly until study endpoints.

## Cc1nc(N2CCC3(CC2)CO[C@@H](C)[C@H]3N)c(CO)nc1-c1cccc(Cl)c1Cl [RMC-4550]
[1]
  Ly6C+ myeloid derived suppressor cells in tumor: only a slight decrease
[2]
  effect on tumor growth (in words): tumor growth inhibition
